The source of these data is PMC5931475, “Deciphering the molecular determinants of cholinergic anthelmintic sensitivity in nematodes: When novel functional validation approaches highlight major differences between the model Caenorhabditis elegans and parasitic species” (PLoS Pathogens, 2018).

The target of experiment [1] is T1, composite Cel-L-AChR with Dim-ACR-8 (29/38/63/L1 + Dim-ACR-8).
T1 construct: mixed-species complex of whole subunits; cRNA in Xenopus laevis oocytes with C. elegans RIC-3, UNC-50, UNC-74; LEV-8 replaced by D. immitis ACR-8
T1 sequence (A0A2I6TEL0 22-518): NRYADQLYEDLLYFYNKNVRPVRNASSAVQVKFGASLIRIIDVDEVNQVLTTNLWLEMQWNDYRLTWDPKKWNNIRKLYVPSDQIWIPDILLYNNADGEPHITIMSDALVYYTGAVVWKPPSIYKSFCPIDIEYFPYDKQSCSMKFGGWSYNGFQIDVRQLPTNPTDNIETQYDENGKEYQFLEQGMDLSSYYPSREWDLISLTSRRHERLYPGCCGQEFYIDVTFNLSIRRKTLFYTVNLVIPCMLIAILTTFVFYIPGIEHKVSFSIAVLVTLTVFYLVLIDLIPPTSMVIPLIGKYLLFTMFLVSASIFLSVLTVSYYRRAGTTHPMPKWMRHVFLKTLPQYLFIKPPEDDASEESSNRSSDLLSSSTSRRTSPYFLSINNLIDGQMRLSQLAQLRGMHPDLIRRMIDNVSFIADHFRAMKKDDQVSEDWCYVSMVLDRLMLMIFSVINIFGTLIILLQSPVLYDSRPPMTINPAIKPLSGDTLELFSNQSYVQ
T1 sequence (Q23022 17-511, further chain): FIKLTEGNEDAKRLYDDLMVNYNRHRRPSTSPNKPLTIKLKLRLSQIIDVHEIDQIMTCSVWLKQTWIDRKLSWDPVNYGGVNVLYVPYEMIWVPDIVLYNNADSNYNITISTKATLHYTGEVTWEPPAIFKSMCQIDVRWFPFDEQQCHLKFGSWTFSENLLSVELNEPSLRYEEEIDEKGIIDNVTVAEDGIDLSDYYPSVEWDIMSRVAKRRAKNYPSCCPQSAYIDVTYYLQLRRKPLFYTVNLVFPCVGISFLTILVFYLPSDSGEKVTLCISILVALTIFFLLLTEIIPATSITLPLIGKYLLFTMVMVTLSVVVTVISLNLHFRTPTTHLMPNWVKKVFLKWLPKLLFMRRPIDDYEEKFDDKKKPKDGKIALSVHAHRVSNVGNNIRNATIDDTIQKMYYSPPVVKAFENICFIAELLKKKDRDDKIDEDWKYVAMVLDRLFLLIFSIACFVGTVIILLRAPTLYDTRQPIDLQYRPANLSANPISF
T1 sequence (Q9N587 24-502, further chain): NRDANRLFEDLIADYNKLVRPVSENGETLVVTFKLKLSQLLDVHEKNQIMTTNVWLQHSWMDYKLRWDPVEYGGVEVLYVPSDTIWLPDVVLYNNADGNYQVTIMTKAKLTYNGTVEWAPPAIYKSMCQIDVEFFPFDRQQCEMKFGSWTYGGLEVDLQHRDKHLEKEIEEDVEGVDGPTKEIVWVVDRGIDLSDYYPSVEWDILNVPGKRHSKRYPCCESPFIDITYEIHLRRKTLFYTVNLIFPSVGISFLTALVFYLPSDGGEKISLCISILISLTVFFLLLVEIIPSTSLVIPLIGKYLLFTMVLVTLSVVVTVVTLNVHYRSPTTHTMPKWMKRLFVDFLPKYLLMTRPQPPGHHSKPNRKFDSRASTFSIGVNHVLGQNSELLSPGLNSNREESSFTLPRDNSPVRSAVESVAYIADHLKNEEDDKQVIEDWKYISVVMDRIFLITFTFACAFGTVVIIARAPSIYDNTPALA
T1 sequence (P48181 27-493, further chain): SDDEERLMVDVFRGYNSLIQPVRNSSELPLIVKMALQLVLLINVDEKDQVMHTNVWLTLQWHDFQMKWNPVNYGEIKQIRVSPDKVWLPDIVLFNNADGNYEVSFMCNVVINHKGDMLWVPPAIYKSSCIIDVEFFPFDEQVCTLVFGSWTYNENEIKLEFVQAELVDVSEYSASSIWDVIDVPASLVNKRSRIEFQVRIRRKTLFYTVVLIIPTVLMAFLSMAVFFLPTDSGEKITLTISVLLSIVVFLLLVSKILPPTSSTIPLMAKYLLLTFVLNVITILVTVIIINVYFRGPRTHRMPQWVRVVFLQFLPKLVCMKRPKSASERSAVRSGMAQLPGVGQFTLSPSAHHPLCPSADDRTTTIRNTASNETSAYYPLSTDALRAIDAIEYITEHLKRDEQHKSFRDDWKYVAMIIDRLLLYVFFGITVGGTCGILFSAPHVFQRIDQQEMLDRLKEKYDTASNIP
T1 sequence (Q27218 32-507, further chain): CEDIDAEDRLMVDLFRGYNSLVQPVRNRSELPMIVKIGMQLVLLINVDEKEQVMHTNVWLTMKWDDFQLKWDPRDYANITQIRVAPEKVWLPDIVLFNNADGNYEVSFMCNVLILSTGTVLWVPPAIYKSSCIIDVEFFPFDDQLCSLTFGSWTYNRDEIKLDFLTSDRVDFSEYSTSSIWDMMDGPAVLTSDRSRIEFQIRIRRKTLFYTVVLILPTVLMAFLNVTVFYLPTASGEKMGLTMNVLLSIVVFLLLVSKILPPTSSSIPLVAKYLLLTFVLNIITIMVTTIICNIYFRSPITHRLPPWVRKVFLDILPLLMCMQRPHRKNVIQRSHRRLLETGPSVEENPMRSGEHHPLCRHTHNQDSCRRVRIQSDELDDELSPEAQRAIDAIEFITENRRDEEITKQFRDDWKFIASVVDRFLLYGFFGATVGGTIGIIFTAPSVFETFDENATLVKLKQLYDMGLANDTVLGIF
Briefly: two-electrode voltage clamp, Xenopus oocytes. It is filed as cell-based, Caenorhabditis elegans; Dirofilaria immitis. The settings on record: read-out: Lev EC50; agonist; responses normalized to 100 μM ACh. (In two-electrode clamp one electrode senses voltage and the other passes current.)

Experiment [2] deals with T1, composite Cel-L-AChR with Dim-ACR-8 (29/38/63/L1 + Dim-ACR-8). Further details: species or system Xenopus laevis oocytes; Agonist-evoked currents in cRNA-injected oocytes, concentration-response normalized to 100 uM ACh. The settings on record: Imax as % of 100 uM ACh response; agonist.

As a reminder, the EC50 is the midpoint of the concentration-response curve. Consider `c1ccc([C@H]2CN3CCSC3=N2)cc1` [levamisole], for which, in experiment [1], the EC50 was found to be 5.9 ± 1.3 µM. Also, in experiment [2], the “Lev Imax” value is listed as 29.0 ±1.2%.
